# Source: patent publication US8461348B2, “Heterocyclic derivative and use thereof” (Takeda Pharmaceutical Company Limited, priority 2008, dated 2013)
# What was measured:
# Purified sGC = target: T1, Purified sGC (Homo sapiens, UniProt Q02153); test: Measurement of sGC activation in vitro (cGMP production by purified sGC); assay type: biochemical; details: 20 min; test compound diluted to 30 μM, 10 μL/well plus equal volumes of sGC and GTP; 20 min at room temperature; cGMP without compound (1% DMSO) = 100%; read-out: cGMP amount (%) in experiment system
# T1 sequence (Q02153 1-619): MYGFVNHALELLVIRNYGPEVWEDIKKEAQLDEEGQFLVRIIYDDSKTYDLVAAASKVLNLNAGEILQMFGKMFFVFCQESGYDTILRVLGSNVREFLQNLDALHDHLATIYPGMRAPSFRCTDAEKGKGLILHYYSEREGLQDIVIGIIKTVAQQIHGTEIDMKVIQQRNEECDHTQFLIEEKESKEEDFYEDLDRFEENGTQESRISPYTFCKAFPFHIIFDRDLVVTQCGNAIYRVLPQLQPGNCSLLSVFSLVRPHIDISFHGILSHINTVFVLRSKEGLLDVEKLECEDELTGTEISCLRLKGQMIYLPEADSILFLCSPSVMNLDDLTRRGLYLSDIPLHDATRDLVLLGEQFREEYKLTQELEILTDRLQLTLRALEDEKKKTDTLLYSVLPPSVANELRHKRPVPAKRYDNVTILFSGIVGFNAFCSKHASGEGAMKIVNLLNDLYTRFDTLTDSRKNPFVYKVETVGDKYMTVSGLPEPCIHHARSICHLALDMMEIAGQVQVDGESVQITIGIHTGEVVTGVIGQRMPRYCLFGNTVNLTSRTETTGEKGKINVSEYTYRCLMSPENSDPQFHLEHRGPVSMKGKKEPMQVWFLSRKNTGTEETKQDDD
# T1 sequence (Q02108 1-690 partner): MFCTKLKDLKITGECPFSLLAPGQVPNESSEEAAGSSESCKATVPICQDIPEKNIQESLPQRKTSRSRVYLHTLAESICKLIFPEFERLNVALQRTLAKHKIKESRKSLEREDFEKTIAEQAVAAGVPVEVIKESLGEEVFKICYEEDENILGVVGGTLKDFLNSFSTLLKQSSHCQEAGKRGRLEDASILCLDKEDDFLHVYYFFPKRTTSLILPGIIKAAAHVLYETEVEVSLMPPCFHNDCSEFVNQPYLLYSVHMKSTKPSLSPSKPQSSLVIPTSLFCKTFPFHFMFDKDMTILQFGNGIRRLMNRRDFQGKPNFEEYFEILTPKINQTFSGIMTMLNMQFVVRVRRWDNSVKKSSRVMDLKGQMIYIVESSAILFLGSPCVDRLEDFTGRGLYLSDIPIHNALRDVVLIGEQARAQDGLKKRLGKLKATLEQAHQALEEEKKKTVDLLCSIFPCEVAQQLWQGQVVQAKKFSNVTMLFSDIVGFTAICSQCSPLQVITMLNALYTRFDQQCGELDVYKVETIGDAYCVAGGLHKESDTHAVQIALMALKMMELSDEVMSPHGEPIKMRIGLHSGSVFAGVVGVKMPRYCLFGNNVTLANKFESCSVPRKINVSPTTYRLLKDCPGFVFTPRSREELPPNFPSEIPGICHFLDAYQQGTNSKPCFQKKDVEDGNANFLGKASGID
# Procedure: To evaluate sGC activation of each compound, the following in vitro tests were performed.
# A test compound was diluted with a reaction buffer (50 mM HEPES, 5 mM MgCl2, 2 mM DTT, 0.5 mM IBMX (isobutylmethylxanthine), 0.01% BSA) to 30 μM (3% DMSO), and dispensed to a 384 well plate (manufactured by REMP) at 10 μL/well. Purified sGC was diluted with the reaction buffer to 240 ng/mL and added to the plate at 10 μL/well. Then, 120 μM GTP prepared with the reaction buffer was added to the reaction plate at 10 μL/well to initiate an enzyme reaction. After stirring at room temperature for 20 min to allow reaction, 125 mM Na2CO3 was added at 15 μL/well to quench the reaction. Thereafter, 125 mM Zn Acetate (zinc acetate) was added at 15 μL/well to allow precipitation of unreacted GTP. Then, the amount of the resulting cGMP contained in the supernatant was quantified using a CatchPoint cGMP assay kit (molecular devices). The method followed the protocol attached to the assay kit. For detection, Super Signal ELISA Femto (Thermo) was used, and the amount of luminescence was measured with ARVO (Perkinelmer). The sGC activity with addition of the compound was calculated using the amount of cGMP produced without addition of the compound (in the presence of 1% DMSO) as 100%.
# male SHR = test: Measurement of hypotensive action in vivo in SHR; design: species or system rat; details: single oral administration, 5 hr after administration
# Procedure: Animal used was male SHR (32- to 40-week-old, SHR/Izm, Japan SLC, Inc.). Two days before drug administration, a cannula (SP10+SP45, Natsume Seisakusho Co., Ltd.) filled with heparin physiological saline (200 U/mL, Ajinomoto Pharma Co., Ltd.) was inserted from the femoral artery under anesthesia with pentobarbital Na (50 mg/kg, i.p., Kyoritsu Seiyaku Corporation) and dwelled. The other end of the cannula was subcutaneously passed and exposed on the back of the neck where it was fixed. After a recovery period, the artery dwelling cannula was connected to a pressure transducer (DTX Plus DT-XXAD, Japan Becton Dickinson) and output on a pen recorder (linear recorder WR3320-4µL, Graphtec Corporation) via a polygraph (AP-641G, Nihon Kohden Co.), and the blood pressure waveform was recorded. The heart rate was calculated from the blood pressure waveform. After stable blood pressure was obtained, a solvent or a drug was orally administered once, and average blood pressure and average heart rate were measured over time. The blood pressure was measured under fasting, and the rats were reared under free ingestion of feed and water except the blood pressure measurement day. The drug was suspended in 0.5% methylcellulose aqueous solution. The administration dose was 2 mL/kg.
activity at 10 µM (Purified sGC) [%],Compound,hypotension after 5 hr from the administration (male SHR; 30 mg/kg) [mmHg],hypotension after 5 hr from the administration (male SHR; 10 mg/kg) [mmHg]
> 1000,"O=C(O)c1cnn(-c2nc(CCc3cccc(C(F)(F)F)c3)cs2)c1C(F)(F)F [Ref. Ex. 24, 5-(trifluoromethyl)-1-(4-{2-[3-(trifluoromethyl)phenyl]ethyl}-1,3-thiazol-2-yl)-1H-pyrazole-4-carboxylic acid]",–,–
> 1000,"O=C(Nc1cccc(Cl)c1)c1csc(-n2ncc(C(=O)O)c2C(F)(F)F)n1 [Ref. Ex. 20, 1-{4-[(3-chlorophenyl)carbamoyl]-1,3-thiazol-2-yl}-5-(trifluoromethyl)-1H-pyrazole-4-carboxylic acid]",–,–
> 1000,"O=C(O)c1cnn(-c2nc(-c3ccc(Cl)c(Cl)c3)cs2)c1 [Ref. Ex. 17, 1-[4-(3,4-dichlorophenyl)-1,3-thiazol-2-yl]-1H-pyrazole-4-carboxylic acid]",–,–
> 1000,"FC(F)(F)c1c(-c2nn[nH]n2)cnn1-c1nc(-c2ccc(Cl)c(Cl)c2)cs1 [Ref. Ex. 18, 5-{1-[4-(3,4-dichlorophenyl)-1,3-thiazol-2-yl]-5-(trifluoromethyl)-1H-pyrazol-4-yl}-2H-tetrazole]",–,–
> 1000,"O=C(O)c1cnn(-c2nc(-c3cccc(OC(F)(F)F)c3)cs2)c1C(F)(F)F [Ref. Ex. 10, 1-{4-[3-(trifluoromethoxy)phenyl]-1,3-thiazol-2-yl}-5-(trifluoromethyl)-1H-pyrazole-4-carboxylic acid]",–,–
766,"O=C(O)c1cnn(-c2nc(COc3ccc(Cl)c(Cl)c3)cs2)c1C(F)(F)F [Ref. Ex. 22, 1-[4-[(3,4-dichlorophenoxy)methyl]-1,3-thiazol-2-yl]-5-(trifluoromethyl)-1H-pyrazole-4-carboxylic acid]",–,–
> 1000,"Cc1c(C(=O)O)cnn1-c1nc(-c2ccc(Cl)c(Cl)c2)cs1 [Ref. Ex. 5, 1-[4-(3,4-dichlorophenyl)-1,3-thiazol-2-yl]-5-methyl-1H-pyrazole-4-carboxylic acid]",–,–
> 1000,"CS(=O)(=O)NC(=O)c1cnn(-c2nc(-c3ccc(Cl)c(Cl)c3)cs2)c1C(F)(F)F [Ref. Ex. 19, 1-[4-(3,4-dichlorophenyl)-1,3-thiazol-2-yl]-N-(methylsulfonyl)-5-(trifluoromethyl)-1H-pyrazole-4-carboxamide]",–,–
> 1000,"O=C(O)c1cnn(-c2nc(-c3ccc(Cl)c(Cl)c3)cs2)c1C1CC1 [Ref. Ex. 4, 5-cyclopropyl-1-[4-(3,4-dichlorophenyl)-1,3-thiazol-2-yl]-1H-pyrazole-4-carboxylic acid]",–,–
> 1000,"O=C(O)c1cnn(-c2nc(Cc3cccc(C(F)(F)F)c3)cs2)c1C(F)(F)F [Ref. Ex. 25, 5-(trifluoromethyl)-1-{4-[3-(trifluoromethyl)benzyl]-1,3-thiazol-2-yl}-1H-pyrazole-4-carboxylic acid]",–,–
> 1000,"O=C(O)c1cnn(-c2nc(-c3ccc(Cl)c(Cl)c3)cs2)c1C(F)(F)F [Ref. Ex. 1, 1-[4-(3,4-dichlorophenyl)-1,3-thiazol-2-yl]-5-(trifluoromethyl)-1H-pyrazole-4-carboxylic acid]",–,–
> 1000,"O=C(O)c1cnn(-c2nc(-c3ccc(Cl)s3)cs2)c1C(F)(F)F [Ref. Ex. 3, 1-[4-(5-chlorothiophen-2-yl)-1,3-thiazol-2-yl]-5-(trifluoromethyl)-1H-pyrazole-4-carboxylic acid]",–,–

# The next lines start with the compound.
Compound,activity at 10 µM (Purified sGC) [%],hypotension after 5 hr from the administration (male SHR; 30 mg/kg) [mmHg],hypotension after 5 hr from the administration (male SHR; 10 mg/kg) [mmHg]
"FC(F)(F)c1cccc(-c2csc(Cn3cc(-c4nn[nH]n4)cn3)n2)c1 [Example 18, 5-[1-({4-[3-(trifluoromethyl)phenyl]-1,3-thiazol-2-yl}methyl)-1H-pyrazol-4-yl]-2H-tetrazole]",503,–,–
"O=C(O)c1ccc(Cc2nc(-c3cccc(C(F)(F)F)c3F)cs2)cc1 [Example 186, 4-({4-[2-fluoro-3-(trifluoromethyl)phenyl]-1,3-thiazol-2-yl}methyl)benzoic acid]",> 1000,–,–
"O=C(O)c1cnn(Cc2csc(-c3cccc(C(F)(F)F)c3)n2)c1 [Example 21, 1-({2-[3-(trifluoromethyl)phenyl]-1,3-thiazol-4-yl}methyl)-1H-pyrazole-4-carboxylic acid]",> 1000,–,–
"Cc1c(C(=O)O)cnn1Cc1nc(-c2cccc(C(F)(F)F)c2)cs1 [Example 13, 5-methyl-1-({4-[3-(trifluoromethyl)phenyl]-1,3-thiazol-2-yl}methyl)-1H-pyrazole-4-carboxylic acid]",> 1000,–,–
"O=C(O)c1cnn(Cc2nc(-c3cccc(C(F)(F)F)c3F)cs2)c1 [Example 52, 1-({4-[2-fluoro-3-(trifluoromethyl)phenyl]-1,3-thiazol-2-yl}methyl)-1H-pyrazole-4-carboxylic acid]",> 1000,29.4,–
"Cc1cc(C(=O)O)nn1Cc1nc(-c2ccc(Cl)c(Cl)c2)cs1 [Example 6, 1-{[4-(3,4-dichlorophenyl)-1,3-thiazol-2-yl]methyl}-5-methyl-1H-pyrazole-3-carboxylic acid]",420,–,–
"O=C(O)c1ccc(Cc2nc(-c3ccc(Cl)c(Cl)c3)cs2)cc1 [Example 179, 4-{[4-(3,4-dichlorophenyl)-1,3-thiazol-2-yl]methyl}benzoic acid]",> 1000,–,–
"O=C(O)c1ccc(Cc2nc(-c3cccc(C(F)(F)F)c3)cs2)cc1 [Example 178, 4-({4-[3-(trifluoromethyl)phenyl]-1,3-thiazol-2-yl}methyl)benzoic acid]",> 1000,15.8,–
"O=C(O)c1cnn(Cc2nc(-c3cccc(C(F)(F)F)c3)cs2)c1 [Example 1, 1-({4-[3-(trifluoromethyl)phenyl]-1,3-thiazol-2-yl}methyl)-1H-pyrazole-4-carboxylic acid]",> 1000,15.5,–
"Cc1sc(-c2cc(Cl)cc(C(F)(F)F)c2)nc1Cn1cc(C(=O)O)cn1 [Example 83, 1-({2-[3-chloro-5-(trifluoromethyl)phenyl]-5-methyl-1,3-thiazol-4-yl}methyl)-1H-pyrazole-4-carboxylic acid]",> 1000,–,14.5
"O=C(O)c1cnn(Cc2ncc(-c3cccc(C(F)(F)F)c3)s2)c1 [Example 23, 1-({5-[3-(trifluoromethyl)phenyl]-1,3-thiazol-2-yl}methyl)-1H-pyrazole-4-carboxylic acid]",996,–,–
